“And” between values parts separate entries of the source, which are not always exact repeats. Equal entries are not always repeated.
What was measured:
[1] = system: HL-60 human leukemia cancer cell line; experiment: MTT viability assay, HL-60; format: cell-based; conditions: Homo sapiens, HL-60, 72 h, mean ± SD of three independent experiments, read-out: Antiproliferative Activities IC50, HL-60
Description: (§1) All the human tumour cell lines MCF-7, HL-60, HCT-116, and HUVEC were cultured in Dulbecco’s Modified Eagle’s Medium (DMEM) with 10% fetal bovine serum, 2 mM L-glutamine and 100 µg/mL penicillin/streptomycin. Cells were maintained at 37 °C in 5% CO2 in a humidified incubator. All cells were sub-cultured three times/week by trypsinization using TrypLE Express (1X).
(§2) The Benzotriazole compounds were evaluated for antiproliferative effect using the MTT viability assay of various cancer cell lines (MCF-7, HCT-116 and HL-60) and the normal human umbilical vein endothelial cell line (HUVEC) to calculate the relative IC50 values for each compound. Cells were seeded in triplicate in 96-well plates at a density of 10 × 10^3 cells/mL in a total volume of 200 µL per well. 0.1% of DMSO was used as a vehicle control. After this time, they were treated with 2 µL test compound which had been pre-prepared as stock solutions in ethanol to furnish the concentration range of study, 10 nM to 100 µM, and re-incubated for a further 72 h. The culture medium was then removed, and the cells washed with 100 µL phosphate buffered saline (PBS) and 50 µL MTT added, to reach a final concentration of 1 mg/mL MTT added. Cells were incubated for 2 h in darkness at 37 °C. At this point solubilisation was begun through the addition of […] DMSO and the cells maintained at room temperature in darkness for 20 min to ensure thorough colour diffusion before reading the absorbance. Plates were incubated for 72 h at 37 °C + 5% CO2. The MTT (5 mg/mL in PBS) was added and incubated for another 4 h, and the optical density was detected with a microplate reader at 570 nm. Results were expressed as percentage viability relative to vehicle control (100%). Dose response curves were plotted and IC50 values (concentration of drug resulting in 50% reduction in cell survival) were obtained using the commercial software package Prism (GraphPad Software, Inc., La Jolla, CA, USA). All the experiments were repeated in at least three independent experiments.

[2] = system: HL-60 cells; experiment: Annexin V/PI apoptotic assay by flow cytometry; format: cell-based, human; conditions: BI9 1 µM, CA-4 concentration not given, control 1.6%
Description: Apoptotic cell death was detected by flow cytometry using Annexin V and propidium iodide (PI). HL-60 Cells were seeded in 6 well plated at density of 1 × 10^5 cells/mL and treated with vehicle (0.1% (v/v) EtOH), positive control (CA-4) or compound BI9 (1 µM) for 48 and 72 h. Cells were then harvested and prepared for flow cytometric analysis. Cells were washed in 1X binding buffer ([…] binding buffer: 0.1M HEPES, pH 7.4; 1.4 M NaCl; 25 mM CaCl2 diluted in dH2O) and incubated in the dark for 30 min on ice in Annexin V-containing binding buffer [1:100]. Cells were then washed once in binding buffer and then re-suspended in PI-containing binding buffer [1:1000]. Samples were analysed immediately using the BD accuri flow cytometer and prism software for analysis the data. Four populations are produced during the assay Annexin V and PI negative (Q4, healthy cells), Annexin V positive and PI negative (Q3, early apoptosis), Annexin V and PI positive (Q2, late apoptosis) and Annexin V negative and PI positive (Q1, necrosis).

[3] = system: BAX; experiment: Western blot of BAX expression in HL-60 cells; format: cell-based, human; conditions: HL-60, 0.5 and 1 µM, compared to the untreated group
Description: HL-60 cells were seeded at a density of 1 × 10^5 cells/flask in T25 flasks. […] HL-60 cells were harvested in RIPA buffer supplemented with protease inhibitors (Roche Diagnostics), phosphatase inhibitor cocktail 2 (Sigma-Aldrich), and phosphatase inhibitor cocktail 3 (Sigma-Aldrich). Equal quantities of protein (as determined by a BCA assay) were resolved by SDS-PAGE (12%) followed by transfer to PVDF membranes. Membranes were blocked in 5% bovine serum albumin/TBST for 1 h. Membranes were incubated in the relevant primary antibodies at 4 °C overnight, washed with TBST, and incubated in horseradish peroxidase conjugated secondary antibody for 1 h at rt and washed again. Western blot analysis was performed as described above using antibodies directed against BAX [1:1000] (Cell Signaling Technology), PARP [1:500] (Cell Signaling Technology) and Bcl-2 [1:500] (Cell Signaling Technology) followed by incubation with a horseradish peroxidase-conjugated anti-mouse antibody [1:2000] (Promega, Madison, WI, USA). All blots were probed with β-actin antibody [1:5000] (Sigma) to confirm equal loading. Proteins were detected using enhanced chemiluminescent Western blot detection (Clarity Western ECL substrate) (Bio Rad) on the ChemiDoc MP System (Bio Rad). Experiments were performed on three independent occasions.

[4] = system: colchicine binding site of tubulin; experiment: Colchicine site competitive binding assay ([3H]colchicine); conditions: tubulin and colchicine at 1 and 5 µM
Description: The affinity of Benzotriazole compounds to colchicine binding site was determined using a Colchicine Site Competitive Assay kit CytoDYNAMIX Screen15 (Cytoskeleton, Inc., Denver, CO, USA) using the standard protocol of the manufacturer to determine Ki values (μM). Biotin-labelled tubulin ([…]) and the test compounds (positive control colchicine, negative control vinblastine, G-1, fluorescent G-1, or 2-ME) in a 96-well plate (final volume: 100 μL). After incubating for 2 h at 37 °C with gentle shaking, streptavidin-labelled yttrium SPA beads (80 μg in 20 μL reaction buffer, PerkinElmer, Waltham, MA) were added to each well and incubated for 30 min at 4 °C. The plates were then read on a scintillation counter (Packard Instrument, Topcount Microplate Reader) and the percentage of inhibition was calculated.

[5] = system: bovine brain tubulin; experiment: Tubulin polymerization assay (turbidimetric, kit BK006); format: biochemical; conditions: read-out: Anti-Tubulin Activity IC50 ± SD (inhibition of tubulin polymerization)
Description: The assembly of purified bovine tubulin was monitored using a kit, BK006, purchased from Cytoskeleton Inc., (Denver, CO, USA). The assay was carried out in accordance with the manufacturer’s instructions using the standard assay conditions. Briefly, purified ([…]) in a buffer consisting of 80 mM PIPES (pH 6.9), 0.5 mM EGTA, 2 mM MgCl2, 1 mM GTP and 10% glycerol was incubated at 37 °C in the presence of either vehicle (2% (v/v) ddH2O), CA-4, benzotriazole compounds. Light was scattered proportionally to the concentration of polymerized microtubules in the assay. Therefore, the tubulin assembly was monitored turbidimetrically at 340 nm in a Spectramax 340 PC spectrophotometer (Molecular Devices, Sunnyvale, CA, USA). The concentration that inhibits tubulin polymerization by 50% (IC50) was determined using area under the curve (AUC). The AUC of the untreated controls were considered as 100% polymerization. The IC50 value for each compound was computed using GraphPad Prism Software.

[6] = system: HCT-116 human colon cancer cell line; experiment: MTT viability assay, HCT-116; format: cell-based; conditions: Homo sapiens, HCT-116, 72 h, mean ± SD of three independent experiments, read-out: Antiproliferative Activities IC50, HCT-116
Description: as §1, §2

IC50 [1]: 400 ± 30 nM
Colchicine Binding % ± SD (inhibition of [3H]colchicine binding), 1 µM Drug ([4]; 1 µM drug): 49% and 49.38 ± 2%
Colchicine Binding % ± SD (inhibition of [3H]colchicine binding), 5 µM Drug ([4]; 5 µM drug): 66% and 66.57 ± 2%
IC50 [5]: 520 ± 20 nM
IC50 [6]: 2630 ± 170 nM
Structure (SMILES): S=c1[nH]c(-n2nnc3ccccc32)cn1-c1ccc(Cl)cc1Cl [BI9, 4-(1H-Benzo[d][1,2,3]Triazol-1-yl)-1-(2,4-Dichlorophenyl)-1H-Imidazole-2(3H)-Thione]
Total fraction of early and late apoptotic cells (Annexin V positive) ([2]; 48 h): 21.5%
Average fraction of Annexin V-staining positive cells (total apoptotic cells) ([2]; 72 h): 19.2%
Expression level of pro-apoptotic Bax protein [3]: significantly up-regulated
